We go through eleven molecules from ChEMBL document CHEMBL1127993, “4-[5-(2,3-dihydroxyphenyl)pentyloxy]-2-hydroxy-3-propylbenzoic acid (Ro 24-0553): an orally active 5-lipoxygenase inhibitor with antiinflammatory activity” (Bioorg Med Chem Lett, 1994).

Active and inactive are the calls of the source. The calls are words filed in the database; no cut-off is given here.

Assay [1] concerns the target T1, Polyunsaturated fatty acid 5-lipoxygenase (Rattus norvegicus, UniProt P12527).
T1 sequence (P12527 whole entry): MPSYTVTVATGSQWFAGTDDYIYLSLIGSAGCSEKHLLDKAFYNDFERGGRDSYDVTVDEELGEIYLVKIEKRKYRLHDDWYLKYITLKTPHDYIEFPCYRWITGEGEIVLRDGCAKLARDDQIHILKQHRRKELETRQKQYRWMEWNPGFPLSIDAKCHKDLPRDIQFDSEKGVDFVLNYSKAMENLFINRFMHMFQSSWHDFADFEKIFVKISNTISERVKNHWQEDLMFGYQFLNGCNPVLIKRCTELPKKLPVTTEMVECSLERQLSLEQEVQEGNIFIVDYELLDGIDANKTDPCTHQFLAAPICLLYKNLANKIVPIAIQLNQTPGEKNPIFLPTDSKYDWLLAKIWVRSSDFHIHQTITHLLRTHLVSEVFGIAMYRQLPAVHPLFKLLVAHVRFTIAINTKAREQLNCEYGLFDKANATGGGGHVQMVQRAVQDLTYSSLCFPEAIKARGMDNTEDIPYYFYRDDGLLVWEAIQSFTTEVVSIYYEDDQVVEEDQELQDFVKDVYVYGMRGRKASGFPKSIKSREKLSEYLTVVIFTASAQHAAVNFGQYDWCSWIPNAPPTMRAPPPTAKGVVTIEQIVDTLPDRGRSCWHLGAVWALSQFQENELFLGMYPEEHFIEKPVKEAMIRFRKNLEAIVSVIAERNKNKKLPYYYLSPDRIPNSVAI
The assay can be described thus: Inhibition of 5-lipoxygenase from rat basophilic leukemia(RBL-1) cells. It is filed as cell-based.

Assay [2] has as its system Rattus norvegicus. The experiment in a line: In vivo inhibitory activity against acetic acid-induced colitis of rat at 1 mg/kg upon peroral administration. To be noted: route oral. It is filed as functional.
For assay [3], the species on record is Rattus norvegicus. The assay can be described thus: Inhibitory activity against peroxidation of rat cardiac membrane liposomes at 1 uM concentration. It is filed as functional. To be noted: Microsome.
The species named for assay [4] is Rattus norvegicus. The experiment in a line: Inhibitory activity against peroxidation of rat cardiac membrane liposomes. Type of assay: functional.
The subject of assay [5] is Rattus norvegicus. The experiment in a line: In vivo inhibitory activity against acetic acid-induced colitis of rat at 10 mg/kg upon peroral administration. It is filed as functional. The conditions noted are these: route oral.
Assay [6] is filed under the species Mus musculus. The experiment in a line: Myeloperoxidase activity was determined as a measure of neutrophil infiltration at a 0.1 mg dose in the AA treated mice. Type of assay: functional.
For assay [7], the species on record is Mus musculus. The assay can be described thus: Myeloperoxidase activity was determined as a measure of neutrophil infiltration at the 0.4 mg dose in the TPA treated mice. Type of assay: functional.
Assay [8] deals with Mus musculus. The experiment in a line: Inhibition of the AA-induced edema in mouse ear inflammation test at 1 mg. It is filed as functional.
A further assay deals with Mononuclear cell line. The experiment in a line: In vitro inhibitory activity against interleukin-1-beta biosynthesis by isolated human mononuclear cells at 10 uM. It is filed as functional.
The species named for assay [9] is Rattus norvegicus. The assay can be described thus: Inhibition of LTB4 biosynthesis in ionophore-stimulated rat peritoneal macrophages. It is filed as functional.
Assay [10] is filed under the species Rattus norvegicus. The experiment in a line: Inhibition of PGE-2 biosynthesis in ionophore stimulated rat peritoneal macrophages. It is filed as functional.
The test system of assay [11] is Rattus norvegicus. The experiment in a line: Percent reduction of neutrophil accumulatiom with an minimum effective dose of 100 ug/kg when administered orally twice daily for two days before induction of acetic acid-induced colitis in the rat. Type of assay: functional.
In assay [12] the test system is Rattus norvegicus. The experiment in a line: Percent reduction of neutrophil accumulatiom with an minimum effective dose of 1 mg/kg when administered orally twice daily for two days before induction of acetic acid-induced colitis in the rat. It is filed as functional. To be noted: route oral.
In assay [13] the test system is Rattus norvegicus. The experiment in a line: Reduction of erythema at 1 mg/kg in acetic acid-induced colitis of the rat. Type of assay: functional.
Assay [14] deals with Rattus norvegicus. The assay can be described thus: Reduction of necrosis at 1 mg/kg in acetic acid-induced colitis of the rat. Type of assay: functional.
Assay [15] relates to Mus musculus. The assay can be described thus: Inhibition of the TPA-induced edema in mouse ear inflammation test at a topical dose of 0.4 mg. It is filed as functional.
Assay [16] is filed under the species Homo sapiens. The experiment in a line: Inhibition of LTB4 biosynthesis in human neutrophils.
The species entered for assay [17] is Homo sapiens. The assay can be described thus: Inhibitory activity against interleukin-1 production by LPS-stimulated human monocytes; IC50 range=4-8 uM. Type of assay: functional.
Assay [18] has as its system Rattus norvegicus. The experiment in a line: Inhibition of neutrophil infiltration at 100 mg/kg in rats. It is filed as functional.
Assay [19] has as its system Rattus norvegicus. The assay can be described thus: Inhibitory activity in rat colitis model at an oral dose of 10 mg/kg; IA means inactive. It is filed as functional, organism-based. Details: dose 10 mg/kg.

One may read the IC50 as the point on the concentration scale where inhibition reaches its midpoint. Higher therefore signals weaker potency. As usually defined, the inhibition in vivo is the drop in the measured response relative to a control, in per cent. A lower inhibition in vivo goes with a response near the control. Usually inhibition stands for the drop in the measured response relative to a control, in per cent. As to `O=C(O)c1ccc(OCCCCCCc2cccc(O)c2O)cc1O`, it took 300 nM to reach half-maximal inhibition in [1] (IC50). In the assay with Rattus norvegicus [2], 1 mg/kg produced 95% inhibition in vivo. Moreover, the inhibition in the assay filed under Rattus norvegicus [3] was 33%.

Turning to `CCCc1c(OCCCCCCc2cccc(O)c2O)ccc(C(=O)O)c1O`, the IC50 in the assay listed under Rattus norvegicus [4] came out at 300 nM. Also, the inhibition in vivo at 10 mg/kg in the assay on Rattus norvegicus [5] stood at 89%.

Usually Inhibition stands for how much of the control response was suppressed. The low end stands for a response near the control, the high end for a response far below the control. With `CCCc1c(OCCCCCc2cccc(O)c2O)ccc(C(=O)O)c1O`, the Inhibition is 86% in the assay listed under Mus musculus [6], 88% in the assay filed under Mus musculus [7], 47% in the assay on Mus musculus [8] and 26% in the assay with Mus musculus [15]. For the same molecule, the inhibition at 10 µM with Mononuclear cell line is 40%. Further, the IC50 in the assay listed under Rattus norvegicus [9] was 600 nM; in the assay listed under Rattus norvegicus [10], 35 µM; in the assay filed under Homo sapiens [16], 1000 nM. The inhibition in vivo at 1 mg/kg with Rattus norvegicus [2] was 88%. In addition, the Reduction in the assay on Rattus norvegicus [11] is 38%; with Rattus norvegicus [12], 88%; in the assay on Rattus norvegicus [13] it was 55%; in the assay on Rattus norvegicus [14] it was 77%.

Turning to `CC(Cc1ccc(O)c(O)c1)C(C)Cc1ccc(O)c(O)c1` (configuration not stated) [NORDIHYDROGUAIARETIC ACID], the figures for the IC50 in the assay listed under Homo sapiens [17] and in the assay filed under Rattus norvegicus [4] were 8 µM and 100 nM, respectively. In the assay with Rattus norvegicus [18], this molecule displayed an inhibition in vivo at 100 mg/kg of 70%. Also, in the assay with Rattus norvegicus [19], the inhibition entry was “inactive”.

`CCCc1c(OCCc2cccc(O)c2O)ccc(C(=O)O)c1O` showed an IC50 in assay [1] of 250 nM. For the same molecule, the inhibition in the assay filed under Rattus norvegicus [3] was 17%.

As for `CCCc1c(OCCCc2cccc(O)c2O)ccc(C(=O)O)c1O`, the concentration for half-maximal inhibition (IC50) in [1] was 170 nM. This molecule also came in with an inhibition in vivo at 10 mg/kg in the assay on Rattus norvegicus [5] of 54%. Further, the inhibition in the assay listed under Rattus norvegicus [3] was 35%.

In the assay filed under Rattus norvegicus [4], `CCCc1cc(C(=O)O)ccc1OCCCCCCc1cccc(O)c1O` gave an IC50 of 680 nM.

In turn, `CCCc1c(OCCCCCCCCCCc2cccc(O)c2O)ccc(C(=O)O)c1O` came in with an IC50 in the assay listed under Rattus norvegicus [4] of 400 nM.

In assay [1], `O=C(O)c1ccc(OCCCCCCc2cccc(O)c2O)cc1` returned an IC50 of 200 nM. In addition, in the assay on Rattus norvegicus [5], 10 mg/kg produced 89% inhibition in vivo. In the assay filed under Rattus norvegicus [3], this molecule gave an inhibition of 9%.

For the molecule `CCCc1c(OCCCCCCCCc2cccc(O)c2O)ccc(C(=O)O)c1O`, the IC50 was 90 nM in [1] and 300 nM in the assay filed under Rattus norvegicus [4]. In the assay with Rattus norvegicus [5], the inhibition in vivo at 10 mg/kg was 35%.

For `CCCc1c(OCCCCc2cccc(O)c2O)ccc(C(=O)O)c1O`, it took 500 nM to reach half-maximal inhibition in the assay listed under Rattus norvegicus [4] (IC50). In the assay with Rattus norvegicus [5], testing at 10 mg/kg gave an inhibition in vivo of 73%.
